Converted amounts (≈) assume the structure as drawn.
Columns and labels:
[1] = Observation of toxicity on injection (Experiments 1-3); format: in vivo, Male Sprague-Dawley rats; details: rats
Protocol: On day 15 after orchidectomy, rats were ether-anesthetized and the right external jugular vein exposed. Animals were then administered one of the following: testosterone-chemical delivery system (T-CDS1 or T-CDS2), testosterone (Steraloids Inc., Wilton, NH) or the vehicle, dimethyl sulfoxide (DMSO; Fisher Scientific, Fair Lawn, NJ). The testosterone-chemical delivery systems were given at doses equimolar to testosterone (25 mg/kg) so that T-CDS1 was administered at 35.5 mg/kg and rats received T-CDS2 at a dose of 45.1 mg/kg. DMSO was injected at a volume of 1 mL/kg. All compounds were administered by infusion over a 2 minute period. One milliliter of blood was withdrawn from the external jugular vein immediately before giving the drugs (1000 hours) and blood was sampled by cardiac puncture after 6, 12, 24 hours and on days 4 and 7. The sera were separated by centrifugation at 500 x g for 20 min at 4°C and stored at -20°C.
Two weeks after orchidectomy, rats were administered either T-CDS1, testosterone propionate (TP; Steraloids Inc.) or DMSO by means of intravenous infusion into the right external jugular vein in an effort to more effectively enhance the brain delivery of testosterone. It has been shown that slow infusion improves brain delivery of drugs attached to the chemical-delivery systems. […]

[2] = Preparation of solid freeze-dried HPCD complexes: degree of incorporation; format: physicochemical
Protocol: An excess of E2-CDS was added and the solution then was purged with helium. The resulting suspension was then sonicated for 30 minutes, filtered through a glass filter (ASTM 10-15M, Pyrex No. 36060) and freeze-dried overnight. Best results were obtained by hard-freezing the aqueous solution of the E2-CDS/HPCD complex for at least 10 hours before lyophilization. The degree of complex formation was determined by dissolving a small amount of the dry complex in methanol and then analyzing by high pressure liquid chromatography (HPLC).
An excess of E2-CDS or other CDS was added to a 50% w/w solution of HPCD. The suspension was sonicated for 30 minutes, filtered through 0.45 µm PVDF membranes and freeze-dried. The degree of incorporation was determined either spectrophotometrically or by HPLC. In some cases, the effect of solubilizing agents on the degree of incorporation was examined. This involved adding small amounts of polyoxyethylene 20 cetyl ether (Brij), polyoxyethylene sorbitan monooleate (Tween 80) or ethanol to the aqueous solution prior to lyophilization.
The retention time was 5.2 min. Other compounds were assayed spectrophotometrically.
The solution was degassed and the suspension was sonicated for 30 minutes, after which it was filtered and the filtrate was lyophilized. The dried filtrate contained 65.6 mg testosterone propionate or 29.6 mg T-CDS1 per gram of cyclodextrin complex. Compounds were analyzed for decomposition by thin-layer chromatography and ultraviolet absorption.

[3] = Solubilizing effect of a 50% w/w solution of HPCD on steroids and CDS; details: 50% w/w aqueous hpcd
Protocol: An excess of E2-CDS was sonicated with an aqueous solution of the appropriate solubilizing agent for 30 minutes. The suspension was then centrifuged, filtered through 0.45 µm polyvinylidene difluoride (Millex-HV4, Millipore®) membranes and analyzed by HPLC. […] An estimation of the bulk equilibrium constant was obtained by correlating the millimolarity of E2-CDS solubilized and the millimolarity of the cyclodextrin added. This latter value was calculated using the average molecular weight of the isomeric mixture determined by mass spectroscopy. The solubilizing effect of a 50% w/w solution of HPCD was also examined for a series of steroids and dihydropyridines (CDS). These studies were carried out in a similar manner to those previously described.
For the CDS, the wavelength monitored was 360 nm while for estrogen 220 nm was used.
Separation was achieved on an Analytical Sciences, Inc. (ASI) 10 µm particle size, C18 reversed phase 30 cm x 3.9 mm i.d. analytical column. The flow rate was 1 mL/min, the compounds were detected at 360 nm and in all determinations the temperature was ambient. […] For the GABA-CDS1, a mobile phase consisting of 50:1:1:48 of the same components was required. […] Other compounds were assayed spectrophotometrically.

CN1C=CCC(C(=O)O[C@H]2CC[C@H]3[C@@H]4CCC5=CC(=O)CC[C@]5(C)[C@H]4CC[C@]23C)=C1 [T-CDS1, 17β-[(1,4-dihydro-1-methyl-3-pyridinylcarbonyl)oxy]androst-4-en-3-one]
toxicity on administration ([1]; DMSO vehicle, i.v. injection or infusion): respiratory distress and/or death
toxicity on administration ([1]; complexed with HPCD, tail vein injection): No respiratory distress or animal loss
Amount of Drug in Dry Complex ([2]; freeze-dried complex from 50% w/w HPCD (ASDS 5.1)): 29.0 mg/g
drug content of dried filtrate ([2]; lyophilized from 50% w/v aqueous HPCD, degree of substitution 5.1): 29.6 mg per gram of cyclodextrin co
solubility [3]: 17.1 mg/mL (≈ 41.8 mM)

Source: EP0335545B2, “Pharmaceutical formulations for parenteral use” (UNIVERSITY OF FLORIDA, priority 1988, dated 1989)
